According to the pKa sets of Baltruschat and Czodrowski (2020):
Where a SMILES comes first, the peptide text is derived from it.

SMILES	pKa (basic group)	pKa (acidic group)
CNCC(O)c1ccccc1 (stereo not drawn)	9.31	–
O=C(O)[C@H]1C[C@@H]1c1cccc([N+](=O)[O-])c1	–	4.41
O=C(O)c1csc(Br)n1	–	3.28
Nc1nc2cc3ccccc3cc2[nH]1	7.01	12.8
C[n+]1ccccc1N	–	12.2
CNC(CO)CO	9.12	–
N#Cc1cc(-c2ccccc2)nnc1NCC[NH+]1CCOCC1	0.5	–
NC1=NS(=O)(=O)Nc2nc[nH]c21	0.28	4.28
Oc1ccc2cccc(Cl)c2c1	–	8.69
CCCCCCCCNCCC(=O)[O-]	10.6	–
CCOC(=O)c1cc(-c2ccccc2)nnc1NCCN1CCOCC1	6.67	–
NCc1ccc(F)c([O-])c1	10	–
Cc1ccc([N+](=O)[O-])c2c(NCCC[NH+](C)C)ccnc12	6.84	–
CNC(=S)c1ccccc1	-2.5	–
Cc1ccc(N)cc1CN	9.33	–
CC(C)([NH3+])C(=O)O	–	2.39
O=C(O)c1ccc(C2CC2)cc1	–	4.42
CCCOC(=O)c1ccc(O)cc1	–	8.3
Oc1nc2nc[nH]c2c[nH+]1	–	1.69
NC(=[NH2+])Nc1nccc(-c2csc(N)n2)n1	2.7	–
O=C([O-])[C@@H]1CCCN1C(=O)[C@@H]1CCCN1 (H-Pro-Pro-OH)	9.27	–
CCc1ccc([C@@H]2CCC[NH+]2C)cn1	3.69	–
COC(=O)C1=CN2CCC1CC2	7.17	–

SMILES	pKa (basic group)	pKa (acidic group)
Fc1cccc(NC(=S)c2ccccc2)c1	–	10.3
C=CCN(CC=C)CC=C	8.31	–
C#CC(C)(C)N(CC)C(C)(C)C	9.6	–
c1ccc(N(CC2CO2)CC2CO2)cc1 (stereo not drawn)	-0.4	–
Cc1nn(C)c(N(C)C(=O)CN)c1C(=O)c1ccccc1F	7.52	–
ClC1CN2CCC1CC2 (stereo not drawn)	8.79	–
O[C@@H]1[C@H](O)[C@@H](n2cnc3cncnc32)OC[C@@H]1O	1.8	–
Oc1ccc(Cl)c2cccnc12	3.68	–
c1cc(C2CCCN2)nc(C2CCC[NH2+]2)c1 (stereo not drawn)	9.46	–
CCCNC(C)C	11	–
CCC(C)(C)NC(C)(C)CC	11.6	–
COc1cccc(CN)c1O	8.7	11.1
CN(C)CCNCCN(C)C	9.59	–
Nc1ccc(-c2ccc(/[NH+]=C/c3ccccc3O)cc2)cc1	4.75	–
N#CCC#N	–	11.2
C[Si](C)(C)CN	10.9	–
CC1(C(=O)O)CCC=[N+]1[O-] (stereo not drawn)	–	2.95
Nc1ccc(Oc2ccc(N)cc2)cc1	5.18	–
Cc1ccc(S(=O)O)cc1	–	1.82
COC1=CC2CCC1(C(=O)O)CC2	–	4.45
CC(=O)c1c(C(=O)O)cccc1[N+](=O)[O-]	–	3.26
Cn1ncc2c(=O)[nH]cnc21	–	9.26
O=C(O)[C@@H]1O[C@H](Oc2ccc3[nH+]c(O)ccc3c2)[C@@H](O)[C@H](O)[C@H]1O	–	3.07

SMILES	pKa (basic group)	pKa (acidic group)
NCC(=O)NCC(=O)NCC(=O)N1CCC[C@H]1C(=O)[O-] (H-GGGP-OH)	8.04	–
O=C(NO)c1cccc2ccccc12	–	7.7
Cc1cc(=O)n(C)n1-c1ccccc1	2.4	–
COc1ccc2[nH]c3c(c2c1)CCN=C3C	9.21	14.5
O=C(O)C[NH+](CC(=O)O)Cc1cc(Cl)cc(C[NH+](CC(=O)O)CC(=O)O)c1O	–	2
COc1ccccc1/C(=N/CCCN(C)C)c1ccccc1	9	–
O=c1cc[nH]cc1	–	11.1
O=C(O)CSC(c1ccccc1)(c1ccccc1)c1ccccc1	–	4.32
CNC(=O)/C=C(\c1ccc2nc(N)n(C(C)C)c2c1)c1cccc(F)c1F	6.69	–
Cc1nc2c(n1C)C(=O)c1[nH]c(=O)[nH]c(=O)c1C2=O	–	5.82
C=C(C)/C(C)=C(\C)O	–	12
Cc1cnc([C@@H](O)[C@H](O)[C@H](O)CO)cn1	1.4	–
CCc1c(C)nnc(C)c1C	5.17	–
O=P([O-])([O-])C(NCc1ccncc1)c1ccccc1[O-] (stereo not drawn)	12.2	–
NC(=S)Nc1ccc(Cl)cc1	–	12.3
CC1=CC(=O)C(C(C)C)=C/C1=N/c1ccc(O)cc1	–	8.8
CCn1nnc(CC(=O)O)n1	3.45	–
Oc1ccc2cn[nH]c2c1	–	9.35
CC(CN(C)C)C(C#N)(c1ccccc1)c1ccccc1 (stereo not drawn)	7.9	–
c1ccc2c(c1)NCCN2	4.84	–
O=C(O)/C=C\c1cccc(Cl)c1	–	3.71
Cc1ccccc1CN(C)C	8.71	–
Cc1cc(-c2[nH]cc[nH+]2)n[nH]1	1.5	–

SMILES	pKa (basic group)	pKa (acidic group)
O=C(O)C1CCC[NH2+]1 (stereo not drawn)	–	1.99
CCCCOc1ccc(C(=O)O)cc1	–	4.48
Nc1ccc(B(O)O)c([N+](=O)[O-])c1	–	9.64
Cc1cc(-c2ccccc2)nn(C)/c1=N/CCN1CCOCC1	10.4	–
[NH3+]c1ccccc1O[C@H]1O[C@@H](C(=O)O)[C@H](O)[C@@H](O)[C@@H]1O	–	3.3
c1nc2c(ccc3c4c(cnc32)CCCC4)c2c1CCCC2	6.23	–
NC(=S)c1ccc([N+](=O)[O-])cc1	–	11.8
O=[N+]([O-])c1ccc2[nH]c(-c3cccs3)nc2c1	2.36	–
CNCC(O)CO (stereo not drawn)	9.55	–
CCC(=O)/C=N/O	–	8.37
N[C@H]1CCCCC[C@@H]1O	9.35	–
COC(=O)[C@H](NC(=O)Cc1ccccc1)[C@@H]1SC(C)(C)[C@H]2C(=O)NC(=S)N12	–	8
CC[NH+](CC)Cc1cc(Cl)ccc1O	–	8.11
C[NH+](C)Cc1cc(F)ccc1O	–	8.12
CC[NH+](CC)CCOc1ccccc1C(=O)NO	–	8.42
CC1(C)CC2CCN1C(=O)C2 (stereo not drawn)	5.33	–
CC(=O)C(Cc1ccccc1)C(C)=O	–	10.5
Cn1c(=O)[nH]c2c(ncn2C)c1=O	–	6.3
O=C(O)CSc1ccccc1[N+](=O)[O-]	–	3.18
CCn1nnnc1CC(=O)O	–	2.85
CCC(=O)C(C[C@H](C)N1CCOCC1)(c1ccccc1)c1ccccc1	6.73	–
OB(O)Cc1ccccc1	–	9.12
Oc1ccccc1Cl	–	8.4

SMILES	pKa (basic group)	pKa (acidic group)
Cc1ccc(S(=O)(=O)Nc2ccccc2)cc1	–	8.46
[NH3+][C@@H](Cc1c[nH]c[nH+]1)C(=O)NCC(=O)O	–	2.4
O=C(O)CNC(=O)CNS(=O)(=O)c1ccccc1	–	3.55
OCc1c[nH]cn1	6.38	–
NNCCO	7.12	–
C#CC(C)(C)NC(C)(C)C=C	8.2	–
CCN(CC)CC(=O)Nc1ccc(C)cc1	8.13	–
CC(=O)ONc1cc(=O)n(C)c(=O)n1C	–	7.01
C/C(N)=N/O	5.9	–
O=C1CCC[C@H]2[C@H]3C[C@@H](CN12)[C@@H]1CCCCN1C3	9.4	–
O=C(O)[c+]1cccccc1	–	3.29
NC1Cc2ccccc2C1	9.55	–
O=Cc1ccc2ccccc2n1	3.1	–
O=[N+]([O-])Cc1cccc(Cl)c1	–	6.63
CCCCNCC(=O)c1ccc(O)cc1	8.55	–
CC1SC(C)(C(=O)O)OC1=O (stereo not drawn)	–	1.94
O=C([O-])c1cccc(O)c1	–	9.81
O=C(O)c1ccoc1	-0.59	3.94
Cc1ccc(/N=N/c2ccc(N)cc2)cc1	3.04	–
O=C(O)c1ccc([N+](=O)[O-])o1	–	2.06
CCC(CC)C1(CC)C(=O)[N-]C(=S)NC1=O	–	12.4
CC[NH+](CC)CCCC(C)Nc1cc(OC)cc2ccc[nH+]c12 (stereo not drawn)	-1.33	–
Cc1nc2c(n1C)C(=O)c1ncnc([O-])c1C2=O	6.15	–

SMILES	pKa (basic group)	pKa (acidic group)
CCCSC(=N)c1ccccc1	8.1	–
COc1cc(OC)c(OC)c(C(=O)N[C@H]2C[C@H]3CC[C@@H](C2)N3Cc2ccccc2)c1	8.84	–
C1N2CN3CN1C[NH+](C2)C3	-1.7	–
CCN(CC)[C@H]1CCC[C@@H]1N(C)C	9.91	–
O=CC1c2ccccc2-c2ccccc21	6.2	7.4
C[NH+](C)CCCCNc1c2ccccc2nc2cccc([N+](=O)[O-])c12	6.9	–
Oc1cc(Cl)cc(Cl)c1	–	8.07
Cc1ccccc1C(=NCC[NH+](C)C)c1ccccc1C	2.82	–
CC([NH3+])c1nnn[nH]1 (stereo not drawn)	–	2.63
c1c(CN2CCNCC[NH2+]CC2)n[nH]c1CN1CCNCC[NH2+]CC1	6.8	–
NC(=S)Nc1cccc([N+](=O)[O-])c1	–	11.1
[O-]c1cccc(Cl)n1	7.76	–
N[C@H]1CCCC[C@@H]1C(=O)[O-]	10.1	–
CCOC(=O)c1cc(C)[n+](O)c(C)c1	–	-0.13
C=CC(=O)NC(C)(C)CCN(CC)CC	10.1	–
Cc1cc(Cc2cc(O)ccc2C)c([O-])c([N+](=O)[O-])c1	–	10.4
NC(=O)C1CCCCN1 (stereo not drawn)	–	8.9
Nc1nc([O-])c2ncn([C@H]3O[C@@H](CO)[C@H](O)[C@@H]3O)c2n1	9.41	–
Cc1cc(C)c2cccc(C)c2n1	4.48	–
CCc1c(-c2ccccc2)nn(C2CCN(C)CC2)c1[O-]	9.15	–
Cc1cnc2c(ccc3c(C)ccnc32)c1	5.57	–
Cn1cnc(C(=O)[O-])c1C(=O)[O-]	8	–
CC(=O)[n+]1cccc(C#N)c1	–	1.62

SMILES	pKa (basic group)	pKa (acidic group)
COc1cc(OC)nc(NS(=O)(=O)c2ccc(O)cc2)n1	–	7.29
CC[C@]1(O)C[C@@H](C)N[C@@H]2CCCC[C@H]21	10.3	–
COc1cc(S(C)(=O)=O)cc(C(=O)N[C@@H]2C[C@H]3CC[C@@H](C2)N3Cc2ccccc2)c1OC	8.92	–
N#CC(C#N)=NNc1ccccc1C(F)(F)F	-0.7	5
CCN(CC)N(CC)CC	7.31	–
O=[N+]([O-])c1cnc([O-])nc1[O-]	11.5	–
CC(C)(N)C(C)(C)N	10.1	–
NS(=O)(=O)c1ccc(/N=C/c2ccccc2[O-])cc1	–	11.7
CC1=C(O)C(O)=CC1	–	9.11
Cc1ccc(NC(=S)c2cccc(Br)c2)cc1	–	10.9
[NH3+]C(CCc1ccc([N+](=O)[O-])cc1)C(=O)O (stereo not drawn)	–	3.05
Oc1cccc(Cl)c1Cl	–	7.71
NS(=O)(=O)c1ccsc1C(=O)O	–	3.3
C[NH2+]CCN(C)CC[NH2+]C	3.13	–
CC(C)Oc1ccc(C(=O)O)cc1	–	4.57
CC(=O)OCCN(C)C	8.3	–
CCCNc1c2ccccc2nc2cccc([N+](=O)[O-])c12	7.2	–
O=C(O)CCC(=O)c1ccc(-c2ccccc2)cc1	–	4.46
